Source: ChEMBL document CHEMBL2331176, “1,5-Diphenylpenta-2,4-dien-1-ones as potent and selective monoamine oxidase-B inhibitors” (Eur J Med Chem, 2013)

Key:
[1] = target: T1, Amine oxidase [flavin-containing] A (Homo sapiens, UniProt P21397); assay: Inhibition of recombinant human MAO-A expressed in baculovirus infected BT1-TN-5B1-4 cells assessed as inhibition of production of hydrogen peroxide from p-tyramine at 100 uM after 15 mins by Amplex Red assay; settings: 0.25 h; for inhibition (INH): 100 µM
T1 sequence (P21397 whole entry): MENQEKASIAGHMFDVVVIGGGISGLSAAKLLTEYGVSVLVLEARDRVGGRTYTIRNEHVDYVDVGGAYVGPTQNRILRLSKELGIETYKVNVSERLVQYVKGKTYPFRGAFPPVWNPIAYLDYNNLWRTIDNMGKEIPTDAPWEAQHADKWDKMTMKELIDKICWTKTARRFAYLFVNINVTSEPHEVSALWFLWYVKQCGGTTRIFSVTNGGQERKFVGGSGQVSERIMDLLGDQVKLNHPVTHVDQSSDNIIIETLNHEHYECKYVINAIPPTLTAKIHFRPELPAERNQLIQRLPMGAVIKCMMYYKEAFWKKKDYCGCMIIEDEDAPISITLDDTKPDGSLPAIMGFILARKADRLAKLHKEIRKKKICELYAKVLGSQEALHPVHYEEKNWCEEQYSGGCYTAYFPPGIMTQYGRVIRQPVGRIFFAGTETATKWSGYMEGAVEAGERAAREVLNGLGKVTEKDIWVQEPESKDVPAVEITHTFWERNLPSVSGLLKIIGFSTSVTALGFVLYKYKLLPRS

[2] = target: T2, Amine oxidase [flavin-containing] B (Homo sapiens, UniProt P27338); assay: Inhibition of recombinant human MAO-B expressed in baculovirus infected BT1-TN-5B1-4 cells assessed as inhibition of production of hydrogen peroxide from p-tyramine at 100 uM after 15 mins by Amplex Red assay; settings: 0.25 h; for inhibition (INH): 100 µM
T2 sequence (P27338 whole entry): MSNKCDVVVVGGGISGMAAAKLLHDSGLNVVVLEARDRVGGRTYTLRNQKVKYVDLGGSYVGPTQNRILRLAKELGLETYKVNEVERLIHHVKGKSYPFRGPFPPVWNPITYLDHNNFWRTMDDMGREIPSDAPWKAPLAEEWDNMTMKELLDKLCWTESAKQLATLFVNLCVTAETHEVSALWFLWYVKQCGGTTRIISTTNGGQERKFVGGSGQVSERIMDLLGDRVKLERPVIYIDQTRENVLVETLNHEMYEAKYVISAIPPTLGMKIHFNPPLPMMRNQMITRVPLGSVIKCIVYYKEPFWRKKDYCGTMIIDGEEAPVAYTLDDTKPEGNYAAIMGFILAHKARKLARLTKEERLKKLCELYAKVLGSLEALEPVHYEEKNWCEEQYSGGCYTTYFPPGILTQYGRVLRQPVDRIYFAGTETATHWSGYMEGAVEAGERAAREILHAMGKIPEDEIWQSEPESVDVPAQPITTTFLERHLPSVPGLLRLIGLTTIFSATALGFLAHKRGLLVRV

[3] = target: T1, Amine oxidase [flavin-containing] A; assay: Inhibition of recombinant human MAO-A expressed in baculovirus infected BT1-TN-5B1-4 cells assessed as inhibition of production of hydrogen peroxide from p-tyramine after 15 mins by Amplex Red assay
Homo sapiens = species: Homo sapiens; assay: Selectivity index, ratio of IC50 for recombinant human MAO-A expressed in baculovirus infected BT1-TN-5B1-4 cells to recombinant human MAO-B expressed in baculovirus infected BT1-TN-5B1-4 cells
[4] = target: T2, Amine oxidase [flavin-containing] B; assay: biochemical; format: cell-based
Description: Inhibition of recombinant human MAO-B expressed in baculovirus infected BT1-TN-5B1-4 cells assessed as inhibition of production of hydrogen peroxide from p-tyramine after 15 mins by Amplex Red assay

[5] = target: T2, Amine oxidase [flavin-containing] B; assay: Inhibition of recombinant human MAO-B expressed in baculovirus infected BT1-TN-5B1-4 cells assessed as inhibition of production of hydrogen peroxide from p-tyramine at 1 mM after 15 mins by Amplex Red assay; settings: 0.25 h, 1000 µM

inhibition (INH) [1] | IC50 [4] [nM] | Compound | Ratio IC50 (Homo sapiens) | also measured
Not Active | – | COc1ccc(/C=C/C(O)=C/C(=O)c2ccccc2O)cc1OC | – | inhibition (INH) [2]: Not Active
– | 26.5 | O=C(/C=C(O)/C=C/c1ccc(O)cc1)c1ccccc1O | 57 | IC50 [3]: 1520 nM
Not Active | 726 | COc1ccc(/C=C/C=C/C(=O)c2cc(F)ccc2O)cc1 | > 138 | –
– | 1810 | COc1ccc(/C=C/C=C/C(=O)c2ccccc2O)cc1 | > 55 | inhibition at 100 µM [1]: 40%
Not Active | 4.51 | COc1ccc(C(=O)/C=C/C=C/c2ccc(Cl)cc2)c(O)c1 | > 22200 | –
– | – | COc1ccc(/C=C/C(O)=C/C(=O)c2c(O)cccc2OC)cc1OC | – | inhibition at 100 µM [1]: 40%; inhibition (INH) [2]: Not Active
– | 502 | COc1cc(/C=C/C=C/C(=O)c2ccccc2O)ccc1O | 3.1 | IC50 [3]: 1560 nM
– | 969 | COc1cc(/C=C/C=C/C(=O)c2c(O)cccc2O)ccc1O | 1.5 | IC50 [3]: 1430 nM
– | 14600 | COc1ccc(/C=C/C=C/C(=O)c2ccccc2O)cc1OC | > 6.8 | inhibition at 100 µM [1]: 40%
– | 11.3 | O=C(/C=C/C=C/c1ccc(Cl)cc1)c1ccc(O)cc1O | 1350 | IC50 [3]: 15400 nM
Not Active | 106 | O=C(/C=C/C=C/c1ccccc1)c1ccccc1O | > 948 | –
– | 654 | O=C(/C=C(O)/C=C/c1ccc(O)c(O)c1)c1ccccc1O | 0.66 | IC50 [3]: 431 nM
Not Active | 1080 | O=C(/C=C/C=C/c1ccc([N+](=O)[O-])cc1)c1cc(Cl)ccc1O | > 93 | –
Not Active | – | COc1ccc(/C=C/C(O)=C/C(=O)c2ccccc2O)cc1 | – | inhibition at 100 µM [2]: 40%
Not Active | 1160 | O=C(/C=C(O)/C=C/c1ccccc1)c1ccccc1O | > 86 | –
Not Active | – | O=C(/C=C(O)/C=C/c1ccc(Cl)cc1)c1cc(Cl)ccc1O | – | inhibition (INH) [2]: Not Active

inhibition (INH) [1] | IC50 [4] [nM] | Compound | Ratio IC50 (Homo sapiens) | also measured
Not Active | 1460 | O=C(/C=C/C=C/c1ccc(Cl)cc1)c1cc(Cl)ccc1O | > 68 | –
– | 1680 | COc1cc(/C=C/C(O)=C/C(=O)c2c(O)cccc2OC)ccc1O | 2.2 | IC50 [3]: 3760 nM
– | – | O=C(NCCN1CCOCC1)c1ccc(Cl)cc1 [MOCLOBEMIDE] | – | inhibition (INH) [5]: Not Active
Not Active | 160 | O=C(/C=C/C=C/c1ccc([N+](=O)[O-])cc1)c1ccccc1O | > 624 | –
Not Active | – | O=C(/C=C(O)/C=C/c1ccc(Cl)cc1)c1ccccc1O | – | inhibition at 100 µM [2]: 40%
– | 1450 | COc1ccc(/C=C/C=C/C(=O)c2c(O)cccc2O)cc1OC | 17 | IC50 [3]: 25200 nM
– | 486 | COc1cc(/C=C/C=C/C(=O)c2c(O)cccc2OC)ccc1O | 2.1 | IC50 [3]: 1030 nM
Not Active | 3770 | Cc1ccc(/C=C/C(O)=C/C(=O)c2ccccc2O)cc1 | > 27 | –
Not Active | 2670 | O=C(/C=C(O)/C=C/c1ccc([N+](=O)[O-])cc1)c1ccccc1O | > 37 | –
– | 860 | O=C(/C=C/C=C/c1ccc(Cl)cc1)c1ccccc1O | 44 | IC50 [3]: 37700 nM
– | 668 | O=C(/C=C/c1ccccc1)c1cc(F)ccc1O | > 150 | inhibition at 100 µM [1]: 40%
Not Active | 75.8 | O=C(/C=C/C=C/c1ccccc1)c1cc(F)ccc1O | > 1320 | –
Not Active | 153 | COc1ccc(/C=C/C=C/C(=O)c2cc(Cl)ccc2O)cc1 | > 653 | –
Not Active | 50.4 | O=C(/C=C(O)/C=C/c1ccccc1)c1cc(F)ccc1O | > 1980 | –
Not Active | 54.8 | O=C(/C=C/C=C/c1ccccc1)c1cc(Cl)ccc1O | > 1830 | –
– | – | COc1ccc(/C=C/C=C/C(=O)c2c(O)cccc2OC)cc1OC | – | inhibition at 100 µM [1]: 40%; inhibition (INH) [2]: Not Active
